This is an account of results in article PMC11468294, “Peptide Amphiphiles as Biodegradable Adjuvants for Efficient Retroviral Gene Delivery” (Advanced Healthcare Materials, 2023).

Data set [1] deals with HIV-1 infection of TZM-bl cells. Briefly: HIV-1 infection assay (β-galactosidase luminescence reporter). The format is cell-based. The settings on record: for infectivity enhancement of HIV-1 (in words): infectivity enhancing if n-fold at 1.3 µM larger than 2. As to the method: HIV‐1 Infection Assay: The effect of peptide fibrils on HIV‐1 infection was studied via a luminescence assay for β‐galactosidase, which was reported by TZM‐bl cells upon infection. 10000 TZM‐bl cells were seeded in 180 µl supplemented DMEM one day prior infection. The cells were inoculated with 20 µl PNF solution 1:1 (v/v) mixed with virus (1:500 dilution) after an incubation time of 10 min. The HIV‐1 infection assay was conducted in three technical replicates and repeated in three independent experiments unless stated otherwise. The assay was conducted as described before.^[ [20] ^]

Data set [2] can be described thus: Microscopic aggregation (fluorescence / confocal microscopy, derived count rate). The class given is physicochemical. The settings on record: fibrils preformed at 1 mg mL-1 in PBS; ThT or Proteostat stain, widefield or confocal microscopy; derived count rate > 1000 kcps as criterion. On the procedure:
(§1) Transmission electron microscopy (TEM) measurements, Thioflavin (ThT), zeta‐potential measurements for fibril characterization, ATR‐IR spectra acquisition and the calculation of β−sheet were prepared and conducted analogous to a previous report.^[ [20], [86] ^] […] Fibrils were defined as distinct, if no visible structures could be identified in fluorescence and brightfield microscopy. […] The derived count rate of the zeta‐potential measurement was used as information on the light scattering intensity and turbidity of the sample as a further indicator for microscopic aggregation.^[ [90] ^]
Fluorescence microscopy: 1 µL Fibrils (1 mg mL^−1) were stained with 9 µL, 50 µM ThT. 10 µL of the stained fibrils (0.1 mg mL^−1) were placed on a microscopy glass. Fluorescence microscopy measurements were performed on a Leica DMi8 microscope with 10x air objective and equipped with a Leica MC170 HD camera with a filter setting λem = 527/30 nm upon excitation at λex = 480/40 nm) and processed with the Leica LASX software.
(§2) 7 Effects of PA modifications on properties and activity
(§3) To investigate the effects of modification in the PA sequence, we created various peptide amphiphiles derived from PA1 by varying the (I) hydrophobic moiety, (II) the linkage chemistry and (III) the peptide sequence (Figure S12, SI chapter 7.1 – 7.3). The color code for sequence representation is yellow for the hydrophobic moiety, blue for cationic amino acids, red for non-polar amino acids, purple for polar uncharged amino acids, and green for anionic amino acids. To be concise, only the summarized information will be discussed, all original data for the peptides are summarized in the (Figure S26 - […]
(§4) Figure S12 Summarized overview of peptide amphiphile library in which systematic variations the original sequence […]
(§5) chemistry and (III) the peptide sequence on infectivity enhancement and degradability (see SI chapter 7.1 – 7.3).
(§6) In the following section a compound is considered infectivity enhancing if n-fold infectivity at 1.3 µM is larger than 2. A compound is considered to form µm-sized aggregates if visible particles were observed in widefield microscopy (brightfield or ThT-staining filter, objective 10x) or confocal […]
(§7) than 1000 kcps in Zeta-Potential measurements.
(§8) For the degradability only the PAs which could be stained with Proteostat (Figure S26) and were visible in microscopy (Figure S15, Figure S18, Figure S21, and Figure S22) were studied in detail. To determine […]
whether a PA is degraded or not, Proteostat stained PAs which are added to Hela cells (2 µg peptide added to 20.000 cells) and studied via confocal laser scanning microscopy. […]
In the following, we will distinguish between three aggregation types for fibrillar structures: Fibrils which were not aggregating (below resolution limit of the microscope, approx. 650 nm), moderately aggregating (< 50 µm2) and aggregating to large particles (> 50 µm 2).
7.1 Effects of hydrophobic moiety exchange on properties and activity
To investigate the effects of varying hydrophobic moieties on assembly, aggregation and activity , we

A further data set concerns HeLa cells. The format is in vitro ADME. The settings on record: for degradability by cells (in words): HeLa cells, 2 µg peptide added to 20,000 cells, d0 (30 min) vs d3, degradable if number and size of aggregates are reduced after 3 days. On the procedure:
Confocal laser scanning microscopy and degradation study with PA library and HeLa cells: Confocal laser scanning microscopy studies were performed for the visualization of the cell‐PA interaction. HeLa cells were seeded one day prior to conducting the assay (20000/well) in an 8‐well IBIDI slide. 2 µL of the preformed peptide fibrils (1 mg mL^−1) were diluted with 2 µL Proteostat (Enzo Life Science, 1 µL stock in 99 µL PBS) and incubated for 10 min and further diluted with medium to receive a final peptide concentration of 10 µg mL^−1. The nucleus of the HeLa cells was stained with Hoechst 33 342 (NucBlue, Thermo Fisher Scientific). The peptide solution mixture was transferred to the HeLa cells and incubated for 30 min at 37°C before washing three times with PBS. The interaction of fibril clusters with cells was monitored after 30 min incubation time on a Stellaris 8 confocal laser scanning microscope (Leica) equipped with a 20x air objective and laser excitation wavelengths of 405 nm (Hoechst), and 561 nm (Proteostat). For the evaluation of aggregate degradation, the samples were further incubated at 37°C for 3 d and analyzed without any additional washing step. The evaluation of aggregate size and number was conducted by analyzing Proteostat stained aggregates via the 3D objects counter function of ImageJ 1.53f51 for 3 individual measurements (area 1008 µm × 1008 µm). […] The number of aggregates were determined by counting aggregates larger than the threshold 10 µm^2 in an area of 1008 µm × 1008 µm and repeated in three technical triplicates.
as §2, §3, §4, §5, §6, §7, §8
whether a PA is degraded or not, Proteostat stained PAs which are added to Hela cells (2 µg peptide added to 20.000 cells) and studied via confocal laser scanning microscopy. Microscopy is conducted at day 0 (d0, after 30 min of incubation) and at day 3 (d3, after 72 h of incubation). The number of aggregates >10 µm2 is counted via 3D object counter in ImageJ in an area of 1008 µm × 1008 µm.
A PA is considered as degradable if the number and the size of aggregates are reduced after 3 days.
The efficiency is determined by the percentual degradation (aggregate number at d3 / aggregate number at d0). Three technical replicates were evaluated for each sample. A large deviation in number and size of aggregates represents a nonhomogeneous distribution and polymorphism of aggregates.

A short description of data set [3]: TEM morphology of peptide assemblies. The format is physicochemical. The settings on record: diluted from DMSO stock (10 mg mL-1) to 1 mg mL-1 in PBS, incubated 1 d at rt. As to the method:
as §1
TEM: 5 µL of fibrils (1 mg mL^−1) were placed on 300 mesh, Formvar layered copper grids. After 10 min incubation time, the grids were staining with 4% uranyl acetate solution for 2.5 min. After
three washing steps with dd H2O excess solvent was removed by filter paper. Measurements
were performed on a Jeol 1400 electron microscope with 120 kV acceleration voltage.

“Also recorded” adds a separate entry of the source. Where a SMILES comes first, the peptide text is derived from it. The star is where a group is joined. X2 = CC/C=C\C/C=C\C/C=C\C/C=C\C/C=C\CCCC(=O)*; Fmoc = O=C(OCC1c2ccccc2-c2ccccc21)*; Palmitoyl = CCCCCCCCCCCCCCCC(=O)*; Lauroyl = CCCCCCCCCCCC(=O)*

As for `CCCCCCCCCCCCCCCC(=O)N[C@@H](C)C(=O)NCC(=O)N[C@@H](C)C(=O)NCC(=O)N[C@@H](CCCNC(=N)N)C(=O)N[C@@H](CCCNC(=N)N)C(=O)N[C@@H](CCCNC(=N)N)C(N)=O` [C16-AGAGRRR-NH2] (Palmitoyl-AGAGRRR-NH2), the “infectivity enhancement of HIV-1 (in words)” value in data set [1] was “Inactive”. Further, the “formation of µm-sized aggregates (in words)” value (shortened to “formation … (in words)”) in data set [2] is “not forming µm-sized aggregates and forming too few/less aggregates, respectively; also recorded: cannot form µm‐sized aggregates”.

As to `CC/C=C\C/C=C\C/C=C\C/C=C\C/C=C\CCCC(=O)N[C@H](C(=O)N[C@H](C(=O)N[C@H](C(=O)N[C@@H](C)C(=O)N[C@@H](C)C(=O)N[C@@H](C)C(=O)N[C@@H](CCCCN)C(=O)N[C@@H](CCCCN)C(=O)N[C@@H](CCCCN)C(N)=O)C(C)C)C(C)C)C(C)C` (X2-VVVAAAKKK-NH2), the “degradability by cells (in words)” value with HeLa cells is on record as “degradable PA”. In addition, the “average size of aggregates” value with HeLa cells (Proteostat-stained PA with HeLa cells, confocal aggregate analysis) is listed as 6-7 µm2. Besides, the “morphology of peptide assemblies / fibril formation (TEM)” value in data set [3] was “structures composed of fibrillar structures”.

In the case of `CCCCCCCCCCCCCCCC(=O)NCC(=O)N[C@@H](CCCCN)C(=O)N[C@H](C(=O)NCC(=O)N[C@@H](CO)C(=O)N[C@@H](CCCCN)C(N)=O)C(C)C` [C16-GKVGSK-NH2] (Palmitoyl-GKVGSK-NH2), the “infectivity enhancement of HIV-1 (in words)” value in data set [1] was “Inactive”. Also, the “formation … (in words)” value in data set [2] is recorded as “cannot form µm‐sized aggregates”.

As for `CCCCCCCCCCCCCCCC(=O)N[C@@H](CCCNC(=N)N)C(=O)N[C@@H](CCCNC(=N)N)C(=O)N[C@@H](Cc1c[nH]c2ccccc12)C(=O)N[C@@H](CCC(N)=O)C(=O)N[C@@H](Cc1c[nH]c2ccccc12)C(=O)N[C@@H](CCCNC(=N)N)C(N)=O` [C16-RRWQWR-NH2] (Palmitoyl-RRWQWR-NH2), in data set [1], the “infectivity enhancement of HIV-1 (in words)” value is given as “Inactive”. In data set [2], the “formation … (in words)” value is “not forming µm-sized aggregates and forming too few/less aggregates, respectively; also recorded: cannot form µm‐sized aggregates”.

Consider `CCCCCCCCCCCCCCCC(=O)NCC(=O)NCC(=O)N[C@H](C(=O)N[C@H](C(=O)N[C@@H](CCCNC(=N)N)C(=O)N[C@@H](CCCNC(=N)N)C(N)=O)C(C)C)C(C)C` [C16-GGVVRR-NH2] (Palmitoyl-GGVVRR-NH2), for which the “infectivity enhancement of HIV-1 (in words)” value in data set [1] is given as “Inactive”. Moreover, the “formation … (in words)” value in data set [2] is “not forming µm-sized aggregates and forming too few/less aggregates, respectively; also recorded: cannot form µm‐sized aggregates”.

For the molecule `CCCCCCCCCCCCCCCC(=O)N[C@@H](Cc1c[nH]c2ccccc12)C(=O)N[C@@H](CCC(=O)O)C(=O)N[C@@H](C)C(=O)N[C@@H](CC(C)C)C(=O)N[C@@H](CCCCN)C(=O)N[C@@H](CCCCN)C(N)=O` [C16-WEALKK-NH2] (Palmitoyl-WEALKK-NH2), the “infectivity enhancement of HIV-1 (in words)” value in data set [1] was “Inactive”. For the same molecule, the “morphology of peptide assemblies / fibril formation (TEM)” value in data set [3] is reported as “not forming fibrils; also recorded: cannot self‐assemble into fibrils”. In addition, in data set [2], the “formation … (in words)” value is “not forming µm-sized aggregates and forming too few/less aggregates, respectively”.

Consider `CCCCCCCCCCCC(=O)N[C@H](C(=O)N[C@H](C(=O)N[C@H](C(=O)N[C@@H](C)C(=O)N[C@@H](C)C(=O)N[C@@H](C)C(=O)N[C@@H](CCCCN)C(=O)N[C@@H](CCCCN)C(=O)N[C@@H](CCCCN)C(N)=O)C(C)C)C(C)C)C(C)C` [C12] (Lauroyl-VVVAAAKKK-NH2), for which the “infectivity enhancement of HIV-1 (in words)” value in data set [1] is on record as “efficient infectivity enhancement”. In addition, the “degradability by cells (in words)” value with HeLa cells was “partially degraded”. Besides, in data set [2], the “formation … (in words)” value is listed as “large aggregate formation”.

For `CC(C)[C@H](NC(=O)OCC1c2ccccc2-c2ccccc21)C(=O)N[C@H](C(=O)N[C@H](C(=O)N[C@@H](C)C(=O)N[C@@H](C)C(=O)N[C@@H](C)C(=O)N[C@@H](CCCCN)C(=O)N[C@@H](CCCCN)C(=O)N[C@@H](CCCCN)C(N)=O)C(C)C)C(C)C` (Fmoc-VVVAAAKKK-NH2), the “infectivity enhancement of HIV-1 (in words)” value in data set [1] is “active”. Besides, the “degradability by cells (in words)” value in the data set with HeLa cells is on record as “cannot be degraded by cells”. In addition, in data set [3], the “morphology of peptide assemblies / fibril formation (TEM)” value was “forming fibrils”. Also, the “formation … (in words)” value in data set [2] is recorded as “very large”.

In the case of `CCCCCCCCCCCCCCCC(=O)N[C@@H](CCCCN)C(=O)NCC(=O)N[C@H](C(=O)N1CCC[C@H]1C(=O)NCC(=O)N[C@H](C(=O)NCC(=O)N[C@@H](CCCCN)C(N)=O)C(C)C)C(C)C` (Palmitoyl-KGVPGVGK-NH2), the “infectivity enhancement of HIV-1 (in words)” value in data set [1] is “Inactive”. For the same molecule, in data set [3], the “morphology of peptide assemblies / fibril formation (TEM)” value is recorded as “not forming fibrils; also recorded: cannot self‐assemble into fibrils”. Further, the “formation … (in words)” value in data set [2] is “not forming µm-sized aggregates and forming too few/less aggregates, respectively”.

“C16-disulfide-CVVVAAAKKK-NH2 [PA1 variant with disulfide linker]”: the “reduction of infectivity enhancement relative to the original amide-linked PA” value in data set [1] (n-fold at 1.3 µM) was “approx. 60%”. The “formation … (in words)” value in data set [2] is reported as “not forming visible aggregates”.
